Laboratory results reported in paper PMC5882164, “A novel calcimimetic agent, evocalcet (MT-4580/KHK7580), suppresses the parathyroid cell function with little effect on the gastrointestinal tract or CYP isozymes in vivo and in vitro” (PLoS ONE, 2018).
Read-outs that look alike come from different tables or passages of the source.

Experiments:
human CaR = molecular target: T1, human CaR (Homo sapiens, UniProt P41180); assay: Agonistic activity studies with HEK293 cells stably expressing human CaR (cytoplasmic Ca2+ concentration); format: cell-based; settings: hCaR-HEK293 cells
T1 construct: expressed in transfected cells
T1 sequence (P41180 20-1078): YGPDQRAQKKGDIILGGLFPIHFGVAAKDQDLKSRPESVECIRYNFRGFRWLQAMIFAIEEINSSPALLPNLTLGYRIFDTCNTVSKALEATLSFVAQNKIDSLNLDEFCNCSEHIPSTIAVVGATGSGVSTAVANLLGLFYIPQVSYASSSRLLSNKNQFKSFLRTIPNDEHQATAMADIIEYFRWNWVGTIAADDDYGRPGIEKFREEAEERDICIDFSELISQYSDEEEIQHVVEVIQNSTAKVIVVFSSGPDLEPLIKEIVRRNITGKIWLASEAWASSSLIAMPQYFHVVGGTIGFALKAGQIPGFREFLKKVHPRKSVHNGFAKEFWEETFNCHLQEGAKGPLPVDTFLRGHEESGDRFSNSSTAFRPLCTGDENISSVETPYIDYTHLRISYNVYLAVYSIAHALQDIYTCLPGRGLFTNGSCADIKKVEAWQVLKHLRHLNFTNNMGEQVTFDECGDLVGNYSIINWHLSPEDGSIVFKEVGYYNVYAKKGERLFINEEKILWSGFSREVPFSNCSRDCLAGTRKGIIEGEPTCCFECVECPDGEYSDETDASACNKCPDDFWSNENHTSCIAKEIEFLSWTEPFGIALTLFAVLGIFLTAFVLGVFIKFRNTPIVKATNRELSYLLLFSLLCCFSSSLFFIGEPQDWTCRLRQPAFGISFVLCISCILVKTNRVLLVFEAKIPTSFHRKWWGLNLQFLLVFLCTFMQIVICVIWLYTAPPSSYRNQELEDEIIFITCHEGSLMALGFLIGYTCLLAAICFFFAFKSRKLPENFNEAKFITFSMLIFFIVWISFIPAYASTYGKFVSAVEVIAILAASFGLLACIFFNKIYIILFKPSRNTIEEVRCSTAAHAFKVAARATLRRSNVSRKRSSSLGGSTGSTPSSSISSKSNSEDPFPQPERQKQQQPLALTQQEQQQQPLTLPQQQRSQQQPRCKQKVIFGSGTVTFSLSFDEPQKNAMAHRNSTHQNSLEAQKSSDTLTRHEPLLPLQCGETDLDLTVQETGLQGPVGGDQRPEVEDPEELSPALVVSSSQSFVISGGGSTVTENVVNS
Procedure: HEK 293 cell is obtained from Summit Pharmaceuticals International Corporation (ATCC® Number: CRL-1573^TM). The HindIII-XhoI fragment of the human CaR cDNA was subcloned into the mammalian expression vector pcDNA3.1/Hygro (+) (Invitrogen) containing the hygromycin resistance gene as a selectable marker. This plasmid was transfected into HEK 293 cells by lipofection. The transfected cells were grown in DMEM containing 10% fetal bovine serum and hygromycin B ([…]) in 96 well plate. Hygromycin-resistant colonies were subcloned and assayed for hCaR mRNA by quantitative RT-PCR. The stably transfected cell line was then selected and used for agonistic activity studies.
Evocalcet was dissolved in dimethyl sulfoxide (DMSO) and diluted with HEPES buffer for the preparation of cells. Evocalcet solutions (3~30000 nM, 9-point concentrations) were added to a 96-well plate, and a suspension of HEK293 cells stably transfected with the human CaR was then seeded onto the plate. The ratio with the fluorescence intensity was determined continuously with a multi-label plate reader. To evaluate the agonistic activity pattern of evocalcet, calcium solutions in each concentration were added after the addition of evocalcet solutions to the plate.
The transient changes in the cytoplasmic calcium concentration (Δ[Ca^2+]i) induced by receptor activation were measured. (A) The effect of evocalcet on the Δ[Ca^2+]i value in hCaR-HEK293 cells. (B) The effect of evocalcet on the response rates elicited by increasing the extracellular calcium level in hCaR-HEK293 cells. The response rate was calculated using the following formula: Responserate(%)=Δ[Ca^2+]i/MaxΔ[Ca^2+]i×100 Δ[Ca^2+]i: Subtraction of basal [Ca^2+]i from maximum [Ca^2+]i observed after addition of evocalcet; Max Δ[Ca^2+]i: Δ[Ca^2+]i at the maximum Ca concentration (3 mmol/L).

[1] = Pharmacokinetics of evocalcet after oral administration to male rats; settings: rat, in vivo; for AUC(0-inf): AUC0-∞
Procedure: The plasma concentrations of evocalcet were determined after single or repeated oral administration in both normal and 5/6 Nx rats. The pharmacokinetic (PK) parameters of the rat plasma concentrations were calculated individually using Phoenix WinNonlin 6.2, a PK analysis software program (Pharsight Corporation, Sunnyvale, CA).

C[C@@H](N[C@H]1CCN(c2ccc(CC(=O)O)cc2)C1)c1cccc2ccccc12 [evocalcet]
Δ[Ca^2+]i (human CaR; evocalcet 3 nmol/L): 1.94 nmol/L
Δ[Ca^2+]i (human CaR; evocalcet 10 nmol/L): 6.18 nmol/L
Response rate (human CaR; evocalcet 20 nmol/L, Ca concentration 0.25 mmol/L): 0%
Response rate (human CaR; evocalcet 20 nmol/L, Ca concentration 0.3 mmol/L): 0%
Response rate (human CaR; evocalcet 20 nmol/L, Ca concentration 0.6 mmol/L): 0.26%
Response rate (human CaR; evocalcet 20 nmol/L, Ca concentration 0.9 mmol/L): 4.69%
Response rate (human CaR; evocalcet 20 nmol/L, Ca concentration 1.2 mmol/L): 16.07%
Response rate (human CaR; evocalcet 20 nmol/L, Ca concentration 1.5 mmol/L): 33.31%
Response rate (human CaR; evocalcet 20 nmol/L, Ca concentration 1.8 mmol/L): 52.75%
Response rate (human CaR; evocalcet 20 nmol/L, Ca concentration 2.1 mmol/L): 70.47%
Response rate (human CaR; evocalcet 20 nmol/L, Ca concentration 2.4 mmol/L): 84.37%
Response rate (human CaR; evocalcet 20 nmol/L, Ca concentration 2.7 mmol/L): 94.54%
Response rate (human CaR; evocalcet 20 nmol/L, Ca concentration 3.0 mmol/L (maximum, reference)): 100%
Δ[Ca^2+]i (human CaR; evocalcet 30 nmol/L): 17.71 nmol/L
Response rate (human CaR; evocalcet 60 nmol/L, Ca concentration 0.25 mmol/L): 0%
Response rate (human CaR; evocalcet 60 nmol/L, Ca concentration 0.3 mmol/L): 0%
Response rate (human CaR; evocalcet 60 nmol/L, Ca concentration 0.6 mmol/L): 3.76%
Response rate (human CaR; evocalcet 60 nmol/L, Ca concentration 0.9 mmol/L): 16.86%
Response rate (human CaR; evocalcet 60 nmol/L, Ca concentration 1.2 mmol/L): 33.15%
Response rate (human CaR; evocalcet 60 nmol/L, Ca concentration 1.5 mmol/L): 53.86%
Response rate (human CaR; evocalcet 60 nmol/L, Ca concentration 1.8 mmol/L): 70.14%
Response rate (human CaR; evocalcet 60 nmol/L, Ca concentration 2.1 mmol/L): 81.77%
Response rate (human CaR; evocalcet 60 nmol/L, Ca concentration 2.4 mmol/L): 88.98%
Response rate (human CaR; evocalcet 60 nmol/L, Ca concentration 2.7 mmol/L): 92.99%
Response rate (human CaR; evocalcet 60 nmol/L, Ca concentration 3.0 mmol/L (maximum, reference)): 100%
Δ[Ca^2+]i (human CaR; evocalcet 100 nmol/L): 50.62 nmol/L
Δ[Ca^2+]i (human CaR; evocalcet 300 nmol/L): 71.35 nmol/L
Δ[Ca^2+]i (human CaR; evocalcet 1000 nmol/L): 70.70 nmol/L
Δ[Ca^2+]i (human CaR; evocalcet 3000 nmol/L): 75.59 nmol/L
Δ[Ca^2+]i (human CaR; evocalcet 10000 nmol/L): 78.61 nmol/L
Δ[Ca^2+]i (human CaR; evocalcet 30000 nmol/L): 77.66 nmol/L
EC50 (human CaR; read-out: EC50 for [Ca^2+]i): 92.7 nM
bioavailability ([1]; Sprague-Dawley, Bioavailability): > 80%
AUC(0-inf) ([1]; Sprague-Dawley, po, 0.1 mg/kg): 819 ng·h/mL
Cmax ([1]; Sprague-Dawley, po, 0.1 mg/kg): 222 ng/mL
bioavailability ([1]; Sprague-Dawley, po, 0.1 mg/kg, F (bioavailability)): 81.6%
half-life ([1]; Sprague-Dawley, po, 0.1 mg/kg, t1/2): 6.66 h
Tmax ([1]; Sprague-Dawley, po, 0.1 mg/kg, tmax): 0.25 h
AUC(0-inf) ([1]; Sprague-Dawley, po, 0.3 mg/kg): 2580 ng·h/mL
Cmax ([1]; Sprague-Dawley, po, 0.3 mg/kg): 600 ng/mL
bioavailability ([1]; Sprague-Dawley, po, 0.3 mg/kg, F (bioavailability)): 85.6%
half-life ([1]; Sprague-Dawley, po, 0.3 mg/kg, t1/2): 5.77 h
Tmax ([1]; Sprague-Dawley, po, 0.3 mg/kg, tmax): 0.38 h
t1/2 ([1]; Sprague-Dawley, po, 1 mg/kg): 6.13 h
AUC(0-inf) ([1]; Sprague-Dawley, po, 1 mg/kg): 8440 ng·h/mL
Cmax ([1]; Sprague-Dawley, po, 1 mg/kg): 2190 ng/mL
bioavailability ([1]; Sprague-Dawley, po, 1 mg/kg, F (bioavailability)): 84.2%
Tmax ([1]; Sprague-Dawley, po, 1 mg/kg, tmax): 0.81 h
half-life ([1]; normal rats, single oral dose 1 mg/kg, mean, read-out: t1/2 (converted)): 6.13 h
AUC(0-inf) ([1]; po, 0.1 mg/kg): 981 ng·h/mL
Cmax ([1]; po, 0.1 mg/kg): 221 ng/mL
half-life ([1]; po, 0.1 mg/kg, t1/2): 5.71 h
Tmax ([1]; po, 0.1 mg/kg, tmax): 0.25 h
Tmax ([1]; po, 0.3 mg/kg): 0.50 h
AUC(0-inf) ([1]; po, 0.3 mg/kg): 2260 ng·h/mL
Cmax ([1]; po, 0.3 mg/kg): 570 ng/mL
half-life ([1]; po, 0.3 mg/kg, t1/2): 5.68 h
Tmax ([1]; po, 0.3 mg/kg, tmax): 0.25 h
Tmax ([1]; po, 1 mg/kg): 1.00 h
AUC(0-inf) ([1]; po, 1 mg/kg): 7890 ng·h/mL
Cmax ([1]; po, 1 mg/kg): 1810 ng/mL
half-life ([1]; po, 1 mg/kg, t1/2): 6.99 h
